Experimental data reported in PubChem BioAssay AID2060340 (Molecular Pharmacology Branch, DTP, NCI, 2025).

Test system: 349418-098-R-PDC spheroids, viability, % test/control
Experiment: Anticancer human tumor 349418-098-R-PDC patient-derived lung adenocarcinoma cell line growth inhibition [IpAb]
Settings: spheroids with HUVEC and MSC; for IC50: curve of first compound; for viability, T/C: stronger effect = lower value
From the text: Combinatorial screen of targeted agents with ipatasertib and abemaciclib in multi-cell type tumor spheroids
A high-throughput screen of multi-cell type tumor spheroids was designed to identify active combinations of targeted small molecules and ipatasertib or abemaciclib. Complex spheroids include a stromal component modeled by human endothelial cells (HUVEC) and fibroblasts modeled by human mesenchymal stem cells (MSCs). The concentration ranges selected for each drug and investigational agent were based upon clinically achievable concentrations if the clinical Cmax of the agent was known.
Compounds. The drugs and investigational agents: ipatasertib (NSC767898), abemaciclib(NSC768073), selumetinib (NSC741078), trametinib (758246), adavosertib (NSC754352), everolimus (NSC733504), sapanisertib (NSC764658), vemurafenib (NSC761431), venetoclax (NSC766270), copanlisib (NSC809693), apelisib (NSC765974), palbociblib (NSC758247), vemurafenib (NSC761431), dabrafenib (NSC764134), ravoxertinib (NSC781343), BMS-387032 (NSC767048), sotorasib (NSC818433), talazoparib (NSC767125) and afursertib (NSC778305), were obtained from the National Cancer Institute (NCI) Developmental Therapeutics Program Chemical Repository. The FDA-approved anticancer drug set is available from the NCI Developmental Therapeutics Program. […] The stock solutions were prepared in dimethyl sulfoxide (DMSO, Sigma-Aldrich, St. Louis, MO, cat. D2650) at 800-fold the tested concentration and stored at -70 degrees C prior to their use. All drugs and investigational agents were tested over a range starting from a high concentration at or near the clinical Cmax and decreasing in half-log increments. If the clinical Cmax for an agent had not been determined, the highest concentration tested was 10 microM.
NCI60 Cell Culture. NCI60 cell lines were obtained from the NCI Developmental Therapeutics Program Tumor Repository. For each lot of cells, the Repository performed Applied Biosystems AmpFLSTR Identifiler testing with PCR amplification to confirm consistency with the published Identifier STR profile for each cell line. Cells were kept in continuous culture for no more than 20 passages. The optimal seeding densities for each of the cell lines at each time point assessed were determined prior to performing the concentration response studies. Briefly, the NCI60 human tumor lines were grown as monolayers in RPMI 1640 medium supplemented with 10% FBS and 2 mmol/L L-glutamine.
An additional 9 lines were from the NCI60 cell line panel including MDA-MB-231 breast carcinoma, MDA-MB-468 breast carcinoma, MCF7 breast carcinoma, Hs578T breast carcinoma, MALME-3M melanoma, SK-MEL-2 melanoma, SK-OV-3 ovarian carcinoma, DU-145 prostate carcinoma, PC-3 prostate carcinoma, all cell lines along with major genetic alterations are listed on Table 2. Pooled donor human umbilical vein endothelial cells (HUVEC, Lonza, cat. CC-2519) and human mesenchymal stem cells (hMSC, Lonza, cat. PT-2501) were purchased from Lonza (Walkersville, MD).
PDMR cell lines were grown in complete medium (DC medium): Dulbecco's modified Eagle's medium (DMEM)/F12 supplemented with 5% fetal bovine serum (FBS), 2 mM L-glutamine, 100 U/mL penicillin and 100 µg/ml streptomycin, 0.4 µg/ml hydrocortisone, 10 ng/ml epidermal growth factor (EGF) recombinant human protein, 24 µg/mL adenine, and 0.1 mg/mL primocin. During culture from frozen stock vials, PDMR cells were cultured in the same medium containing 10 µM Y-27632 (see Table 3). The PDCs were cultured in complete DMEM/F12 media without 10 microM Y-27632 dihydrochloride for at least two passages prior to the screen. The pooled donor HUVEC and hMSC were cultured in endothelial cell growth medium 2 (PromoCell, Heidelberg, Germany, cat. C-22011) and mesenchymal stem cell growth medium 2 (PromoCell, cat. C-28009), respectively. For all experiments, HUVEC and hMSC were used at passages </=5.
[…]
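Further: spheroids exposed to compounds for 7 days.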

## C=CC(=O)N1CCN(c2nc(=O)n(-c3c(C)ccnc3C(C)C)c3nc(-c4c(O)cccc4F)c(F)cc23)C(C)C1 (stereo not given) + CC(C)NCC(C(=O)N1CCN(c2ncnc3c2C(C)CC3O)CC1)c1ccc(Cl)cc1
Second compound 0.1 µM
  IC50: 4010 nM
Second compound 0.316 µM
  IC50: 1000 nM
Second compound 1 µM
  IC50: < 31.6 nM
Second compound 3.16 µM
  IC50: < 31.6 nM
Second compound 10 µM
  IC50: < 31.6 nM
Second compound 0.1 µM, first compound 0.0316 µM
  viability, T/C: 95.8%
Second compound 0.1 µM, first compound 0.1 µM
  viability, T/C: 89.6%
Second compound 0.1 µM, first compound 0.316 µM
  viability, T/C: 76.7%
Second compound 0.1 µM, first compound 1 µM
  viability, T/C: 70.2%
Second compound 0.1 µM, first compound 3.16 µM
  viability, T/C: 64.7%
Second compound 0.1 µM, first compound 10 µM
  viability, T/C: 21.7%
Second compound 0.316 µM, first compound 0.0316 µM
  viability, T/C: 51.9%
Second compound 0.316 µM, first compound 0.1 µM
  viability, T/C: 55.1%
Second compound 0.316 µM, first compound 0.316 µM
  viability, T/C: 51.4%
Second compound 0.316 µM, first compound 1 µM
  viability, T/C: 50.2%
Second compound 0.316 µM, first compound 3.16 µM
  viability, T/C: 23.9%
Second compound 0.316 µM, first compound 10 µM
  viability, T/C: 12.5%
Second compound 1 µM, first compound 0.0316 µM
  viability, T/C: 28.4%
Second compound 1 µM, first compound 0.1 µM
  viability, T/C: 28.3%
Second compound 1 µM, first compound 0.316 µM
  viability, T/C: 19.6%
Second compound 1 µM, first compound 1 µM
  viability, T/C: 17.2%
Second compound 1 µM, first compound 3.16 µM
  viability, T/C: 11.9%
Second compound 1 µM, first compound 10 µM
  viability, T/C: 7.34%
Second compound 3.16 µM, first compound 0.0316 µM
  viability, T/C: 12.3%
Second compound 3.16 µM, first compound 0.1 µM
  viability, T/C: 13.3%
Second compound 3.16 µM, first compound 0.316 µM
  viability, T/C: 11.8%
Second compound 3.16 µM, first compound 1 µM
  viability, T/C: 10%
Second compound 3.16 µM, first compound 3.16 µM
  viability, T/C: 6.96%
Second compound 3.16 µM, first compound 10 µM
  viability, T/C: 5.34%
Second compound 10 µM, first compound 0.0316 µM
  viability, T/C: 6.48%
Second compound 10 µM, first compound 0.1 µM
  viability, T/C: 8.12%
Second compound 10 µM, first compound 0.316 µM
  viability, T/C: 6.94%
Second compound 10 µM, first compound 1 µM
  viability, T/C: 5.09%
Second compound 10 µM, first compound 3.16 µM
  viability, T/C: 5.95%
Second compound 10 µM, first compound 10 µM
  viability, T/C: 4.63%
